Laboratory results reported in patent US11083725B2 (priority 2014, dated 2021).

Tested on: NHBE cells
Experiment: Biolog metabolic array: substrate use by NHBE cells with or without CA09 infection
Format: cell-based, human
Conditions: for Substrate use, 590 nm absorbance normalized to zero hour, 0 hr: Biolog PMM2, 0 hr; for Substrate use, 590 nm absorbance normalized to zero hour, 1 hr: Biolog PMM2, 1 hr; for Substrate use, 590 nm absorbance normalized to zero hour, 7 hr: Biolog PMM2, 7 hr; for Substrate use, 590 nm absorbance normalized to zero hour, 5 hr: Biolog PMM2, 5 hr
[1] = Control (uninfected) NHBE cells
[2] = Virus (CA09-infected, MOI 1) NHBE cells
[3] = Virus: CA09-infected NHBE cells, MOI 1, Biolog PMM2

Molecule	590 nm absorbance normalized to zero hour (substrate use), 1 hr [1]	590 nm absorbance normalized to zero hour (substrate use), 4 hr [1]	590 nm absorbance normalized to zero hour (substrate use), 6 hr [1]	590 nm absorbance normalized to zero hour (substrate use), 8 hr [1]	590 nm absorbance normalized to zero hour (substrate use), 9 hr [1]	590 nm absorbance normalized to zero hour (substrate use), 10 hr [1]	590 nm absorbance normalized to zero hour (substrate use), 11 hr [1]	Substrate use, 590 nm absorbance normalized to zero hour, 1 hr [1]	Substrate use, 590 nm absorbance normalized to zero hour, 7 hr [1]	590 nm absorbance normalized to zero hour (substrate use), 1 hr [2]	590 nm absorbance normalized to zero hour (substrate use), 2 hr [2]	590 nm absorbance normalized to zero hour (substrate use), 3 hr [2]	590 nm absorbance normalized to zero hour (substrate use), 4 hr [2]	590 nm absorbance normalized to zero hour (substrate use), 5 hr [2]	590 nm absorbance normalized to zero hour (substrate use), 7 hr [2]	590 nm absorbance normalized to zero hour (substrate use), 8 hr [2]	590 nm absorbance normalized to zero hour (substrate use), 9 hr [2]	590 nm absorbance normalized to zero hour (substrate use), 10 hr [2]	590 nm absorbance normalized to zero hour (substrate use), 11 hr [2]	590 nm absorbance normalized to zero hour (substrate use), 1 hr [3]	further results
Glycogen	1.61	2.80	4.32	4.85	4.87	4.50	5.01	1.61	4.20	1.68	2.26	2.71	2.92	3.70	4.74	5.48	3.99	4.33	4.63	1.68	590 nm absorbance normalized to zero hour (substrate use), 0 hr [1]: 1.00; Substrate use, 590 nm absorbance normalized to zero hour, 0 hr [1]: 1.00; Substrate use, 590 nm absorbance normalized to zero hour, 3 hr (Control (uninfected) NHBE cells, Biolog PMM2, 3 hr): 2.58; 590 nm absorbance normalized to zero hour (substrate use), 0 hr [2]: 1.00; 590 nm absorbance normalized to zero hour (substrate use), 0 hr [3]: 1.00; 590 nm absorbance normalized to zero hour (substrate use), 2 hr [3]: 2.26; 590 nm absorbance normalized to zero hour (substrate use), 3 hr [3]: 2.71; 590 nm absorbance normalized to zero hour (substrate use), 4 hr [3]: 2.92; 590 nm absorbance normalized to zero hour (substrate use), 5 hr [3]: 3.70; 590 nm absorbance normalized to zero hour (substrate use), 7 hr [3]: 4.74; 590 nm absorbance normalized to zero hour (substrate use), 8 hr [3]: 5.48; 590 nm absorbance normalized to zero hour (substrate use), 9 hr [3]: 3.99; 590 nm absorbance normalized to zero hour (substrate use), 10 hr [3]: 4.33; 590 nm absorbance normalized to zero hour (substrate use), 11 hr [3]: 4.63
OC[C@H]1OC(O)[C@@H](O)[C@@H](O)[C@@H]1O (stereo partly drawn) [D-Mannose]	2.20	4.90	6.50	8.13	9.60	10.60	12.47	2.20	8.62	1.49	2.09	2.68	3.06	4.10	4.94	5.47	6.51	6.80	7.75	1.49	590 nm absorbance normalized to zero hour (substrate use), 0 hr [1]: 1.00; 590 nm absorbance normalized to zero hour (substrate use), 2 hr [1]: 3.33; 590 nm absorbance normalized to zero hour (substrate use), 3 hr [1]: 4.33; Substrate use, 590 nm absorbance normalized to zero hour, 0 hr [1]: 1.00; Substrate use, 590 nm absorbance normalized to zero hour, 5 hr [1]: 6.64; 590 nm absorbance normalized to zero hour (substrate use), 0 hr [2]: 1.00; 590 nm absorbance normalized to zero hour (substrate use), 6 hr [2]: 4.57; 590 nm absorbance normalized to zero hour (substrate use), 0 hr [3]: 1.00; 590 nm absorbance normalized to zero hour (substrate use), 2 hr [3]: 2.09; 590 nm absorbance normalized to zero hour (substrate use), 3 hr [3]: 2.68; 590 nm absorbance normalized to zero hour (substrate use), 4 hr [3]: 3.06; 590 nm absorbance normalized to zero hour (substrate use), 5 hr [3]: 4.10; 590 nm absorbance normalized to zero hour (substrate use), 6 hr [3]: 4.57; 590 nm absorbance normalized to zero hour (substrate use), 7 hr [3]: 4.94; 590 nm absorbance normalized to zero hour (substrate use), 8 hr [3]: 5.47; 590 nm absorbance normalized to zero hour (substrate use), 9 hr [3]: 6.51; 590 nm absorbance normalized to zero hour (substrate use), 10 hr [3]: 6.80; 590 nm absorbance normalized to zero hour (substrate use), 11 hr [3]: 7.75
OC[C@@H](O)[C@@H](O)[C@H](O)[C@@H](O)CO [D-Sorbitol]	2.10	3.84	4.81	5.56	6.08	6.47	6.92	2.10	5.29	1.80	2.63	3.10	3.35	4.00	4.63	4.94	5.39	5.64	6.18	1.80	590 nm absorbance normalized to zero hour (substrate use), 2 hr [1]: 2.97; 590 nm absorbance normalized to zero hour (substrate use), 3 hr [1]: 3.57; Substrate use, 590 nm absorbance normalized to zero hour, 5 hr [1]: 4.59; 590 nm absorbance normalized to zero hour (substrate use), 6 hr [2]: 4.37; 590 nm absorbance normalized to zero hour (substrate use), 2 hr [3]: 2.63; 590 nm absorbance normalized to zero hour (substrate use), 3 hr [3]: 3.10; 590 nm absorbance normalized to zero hour (substrate use), 4 hr [3]: 3.35; 590 nm absorbance normalized to zero hour (substrate use), 5 hr [3]: 4.00; 590 nm absorbance normalized to zero hour (substrate use), 6 hr [3]: 4.37; 590 nm absorbance normalized to zero hour (substrate use), 7 hr [3]: 4.63; 590 nm absorbance normalized to zero hour (substrate use), 8 hr [3]: 4.94; 590 nm absorbance normalized to zero hour (substrate use), 9 hr [3]: 5.39; 590 nm absorbance normalized to zero hour (substrate use), 10 hr [3]: 5.64; 590 nm absorbance normalized to zero hour (substrate use), 11 hr [3]: 6.18
